ChEMBL document CHEMBL2311250 (Bioorg Med Chem Lett, 2013)
Converted amounts (≈) assume the structure as drawn.

What was measured:
[1] = Half life in human liver microsomes; type: ADME, Microsome
[2] = biological target: hERG (KCNH2) (Homo sapiens, UniProt Q12809); test: Displacement of [3H]dofetilide from human ERG at 10 uM; conditions: probe [3H]dofetilide
[3] = biological target: T1, Tyrosine-protein kinase receptor TYRO3 (Homo sapiens, UniProt Q06418); test: Inhibition of Sky (unknown origin) by ELISA kinase assay in presence of 60 uM ATP
T1 sequence (Q06418 whole entry): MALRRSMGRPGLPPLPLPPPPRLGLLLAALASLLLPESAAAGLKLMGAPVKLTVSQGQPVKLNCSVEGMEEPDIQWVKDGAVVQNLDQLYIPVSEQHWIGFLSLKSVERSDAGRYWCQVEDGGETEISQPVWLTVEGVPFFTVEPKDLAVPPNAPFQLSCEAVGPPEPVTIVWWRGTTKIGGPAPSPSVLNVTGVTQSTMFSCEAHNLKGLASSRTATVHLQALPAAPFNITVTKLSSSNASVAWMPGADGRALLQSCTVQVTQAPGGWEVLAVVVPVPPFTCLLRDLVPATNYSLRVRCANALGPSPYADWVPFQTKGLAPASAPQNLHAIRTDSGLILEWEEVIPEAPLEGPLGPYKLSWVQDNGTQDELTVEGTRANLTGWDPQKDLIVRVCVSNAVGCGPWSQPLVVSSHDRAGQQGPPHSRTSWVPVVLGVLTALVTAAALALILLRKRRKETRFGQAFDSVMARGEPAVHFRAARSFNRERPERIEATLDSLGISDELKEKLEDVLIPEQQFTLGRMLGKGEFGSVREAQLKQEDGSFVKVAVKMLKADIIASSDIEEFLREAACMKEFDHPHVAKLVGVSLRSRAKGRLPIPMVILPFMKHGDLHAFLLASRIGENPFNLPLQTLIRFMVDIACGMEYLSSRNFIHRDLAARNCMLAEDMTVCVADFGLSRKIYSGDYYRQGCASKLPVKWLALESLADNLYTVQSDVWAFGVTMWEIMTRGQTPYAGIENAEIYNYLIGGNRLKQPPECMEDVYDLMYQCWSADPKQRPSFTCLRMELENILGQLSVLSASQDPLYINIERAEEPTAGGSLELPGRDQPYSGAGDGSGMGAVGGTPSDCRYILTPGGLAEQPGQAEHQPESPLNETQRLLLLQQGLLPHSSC

[4] = Permeability of the compound by PAMPA; type: ADME; conditions: read-out: permeability
[5] = Aqueous solubility of the compound at ph 6.5; type: physicochemical
[6] = test system: Platelet; test: Inhibition of platelet aggregation (unknown origin); type: functional, cell-based
[7] = Half life in rat liver microsomes; type: ADME, Microsome
[8] = AUC in Sprague-Dawley rat at 1 mg/kg, iv and 5 mg/kg, po; type: ADME, organism-based; conditions: plasma
[9] = Cmax in Sprague-Dawley rat at 1 mg/kg, iv and 5 mg/kg, po; type: ADME, organism-based; conditions: in vivo
[10] = Oral bioavailability in Sprague-Dawley rat at 5 mg/kg; type: ADME, organism-based; conditions: in vivo
[11] = Volume of distribution at steady state in Sprague-Dawley rat at 1 mg/kg, iv and 5 mg/kg, po; type: ADME, organism-based; conditions: in vivo, read-out: Vdss
[12] = biological target: Tyrosine-protein kinase Lck (Homo sapiens, UniProt P06239); test: Inhibition of LCK (unknown origin) in presence of ATP
Sequence of Tyrosine-protein kinase Lck (P06239 whole entry): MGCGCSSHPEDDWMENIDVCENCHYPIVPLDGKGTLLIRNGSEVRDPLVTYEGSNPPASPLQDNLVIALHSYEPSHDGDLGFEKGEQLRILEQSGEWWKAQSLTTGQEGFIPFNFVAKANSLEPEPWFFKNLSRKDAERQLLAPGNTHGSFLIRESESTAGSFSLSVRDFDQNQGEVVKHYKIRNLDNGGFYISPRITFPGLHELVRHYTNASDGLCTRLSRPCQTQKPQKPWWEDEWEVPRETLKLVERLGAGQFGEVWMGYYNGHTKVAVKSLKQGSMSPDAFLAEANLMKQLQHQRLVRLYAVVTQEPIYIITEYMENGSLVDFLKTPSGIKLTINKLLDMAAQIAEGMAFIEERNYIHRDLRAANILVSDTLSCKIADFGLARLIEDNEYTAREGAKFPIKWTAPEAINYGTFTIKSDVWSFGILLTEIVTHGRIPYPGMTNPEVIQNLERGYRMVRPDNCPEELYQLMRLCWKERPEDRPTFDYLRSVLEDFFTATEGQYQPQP

[13] = Half life in Sprague-Dawley rat at 1 mg/kg, iv and 5 mg/kg, po; type: ADME, organism-based; conditions: in vivo
[14] = biological target: Tyrosine-protein kinase ABL1 (Homo sapiens, UniProt P00519); test: Inhibition of ABL (unknown origin) in presence of ATP
Sequence of Tyrosine-protein kinase ABL1 (P00519 whole entry): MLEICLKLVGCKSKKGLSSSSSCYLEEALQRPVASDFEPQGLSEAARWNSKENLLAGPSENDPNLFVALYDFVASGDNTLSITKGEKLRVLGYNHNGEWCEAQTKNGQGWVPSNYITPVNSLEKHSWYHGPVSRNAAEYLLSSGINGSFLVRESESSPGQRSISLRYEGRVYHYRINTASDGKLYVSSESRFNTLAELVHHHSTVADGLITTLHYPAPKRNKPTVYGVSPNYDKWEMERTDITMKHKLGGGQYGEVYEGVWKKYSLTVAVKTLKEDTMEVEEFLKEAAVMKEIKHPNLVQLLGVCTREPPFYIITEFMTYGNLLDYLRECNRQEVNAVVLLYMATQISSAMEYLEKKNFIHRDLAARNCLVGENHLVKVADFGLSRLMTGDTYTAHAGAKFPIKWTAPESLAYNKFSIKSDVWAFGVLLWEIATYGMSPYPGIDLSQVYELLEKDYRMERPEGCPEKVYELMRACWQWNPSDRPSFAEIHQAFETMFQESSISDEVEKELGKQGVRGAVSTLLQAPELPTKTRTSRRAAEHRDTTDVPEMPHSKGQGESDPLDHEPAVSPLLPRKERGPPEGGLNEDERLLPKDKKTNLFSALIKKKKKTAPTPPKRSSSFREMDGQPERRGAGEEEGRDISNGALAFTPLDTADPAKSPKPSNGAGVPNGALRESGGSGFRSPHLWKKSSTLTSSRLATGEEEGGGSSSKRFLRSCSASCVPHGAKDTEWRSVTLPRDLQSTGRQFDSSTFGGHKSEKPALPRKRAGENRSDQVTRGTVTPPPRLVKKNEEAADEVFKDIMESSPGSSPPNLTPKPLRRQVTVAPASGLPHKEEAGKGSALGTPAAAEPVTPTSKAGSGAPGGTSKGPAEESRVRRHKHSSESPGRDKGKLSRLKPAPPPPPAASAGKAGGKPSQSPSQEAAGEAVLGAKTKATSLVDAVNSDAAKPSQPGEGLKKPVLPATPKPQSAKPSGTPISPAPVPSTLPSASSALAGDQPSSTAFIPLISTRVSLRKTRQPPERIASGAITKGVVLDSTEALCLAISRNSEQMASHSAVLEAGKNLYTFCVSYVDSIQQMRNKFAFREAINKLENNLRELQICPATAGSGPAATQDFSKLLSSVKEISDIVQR

[15] = Clearance in Sprague-Dawley rat at 1 mg/kg, iv and 5 mg/kg, po; type: ADME, organism-based; conditions: in vivo
[16] = biological target: RAC-alpha serine/threonine-protein kinase (Homo sapiens, UniProt P31749); test: Inhibition of AKT1 (unknown origin) in presence of ATP
[17] = biological target: Fibroblast growth factor receptor 1 (Homo sapiens, UniProt P11362); test: Inhibition of FGFR1 (unknown origin) in presence of ATP
[18] = biological target: Casein kinase I isoform delta (Homo sapiens, UniProt P48730); test: Inhibition of CK1-delta (unknown origin) in presence of ATP
Sequence of Casein kinase I isoform delta (P48730 whole entry, canonical isoform): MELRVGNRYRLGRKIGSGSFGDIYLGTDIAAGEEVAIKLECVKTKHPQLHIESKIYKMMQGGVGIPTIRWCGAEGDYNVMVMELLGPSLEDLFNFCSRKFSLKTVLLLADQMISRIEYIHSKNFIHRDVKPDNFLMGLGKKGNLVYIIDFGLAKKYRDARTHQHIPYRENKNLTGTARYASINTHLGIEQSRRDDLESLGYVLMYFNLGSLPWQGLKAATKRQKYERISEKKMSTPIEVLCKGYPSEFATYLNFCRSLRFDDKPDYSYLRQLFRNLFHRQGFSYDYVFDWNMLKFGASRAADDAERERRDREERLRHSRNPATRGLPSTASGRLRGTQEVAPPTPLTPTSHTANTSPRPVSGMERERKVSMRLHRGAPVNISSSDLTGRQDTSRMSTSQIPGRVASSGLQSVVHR

[19] = biological target: Insulin receptor (Homo sapiens, UniProt P06213); test: Inhibition of INSR (unknown origin) in presence of ATP
[20] = biological target: Mitogen-activated protein kinase kinase kinase 9 (Homo sapiens, UniProt P80192); test: Inhibition of MAP3K9 (unknown origin) in presence of ATP
[21] = biological target: Mitogen-activated protein kinase kinase kinase kinase 4 (Homo sapiens, UniProt O95819); test: Inhibition of MAP4K4 (unknown origin) in presence of ATP
[22] = biological target: Myosin light chain kinase 2, skeletal/cardiac muscle (Homo sapiens, UniProt Q9H1R3); test: Inhibition of MYLK2 (unknown origin) in presence of ATP
Sequence of Myosin light chain kinase 2, skeletal/cardiac muscle (Q9H1R3 whole entry): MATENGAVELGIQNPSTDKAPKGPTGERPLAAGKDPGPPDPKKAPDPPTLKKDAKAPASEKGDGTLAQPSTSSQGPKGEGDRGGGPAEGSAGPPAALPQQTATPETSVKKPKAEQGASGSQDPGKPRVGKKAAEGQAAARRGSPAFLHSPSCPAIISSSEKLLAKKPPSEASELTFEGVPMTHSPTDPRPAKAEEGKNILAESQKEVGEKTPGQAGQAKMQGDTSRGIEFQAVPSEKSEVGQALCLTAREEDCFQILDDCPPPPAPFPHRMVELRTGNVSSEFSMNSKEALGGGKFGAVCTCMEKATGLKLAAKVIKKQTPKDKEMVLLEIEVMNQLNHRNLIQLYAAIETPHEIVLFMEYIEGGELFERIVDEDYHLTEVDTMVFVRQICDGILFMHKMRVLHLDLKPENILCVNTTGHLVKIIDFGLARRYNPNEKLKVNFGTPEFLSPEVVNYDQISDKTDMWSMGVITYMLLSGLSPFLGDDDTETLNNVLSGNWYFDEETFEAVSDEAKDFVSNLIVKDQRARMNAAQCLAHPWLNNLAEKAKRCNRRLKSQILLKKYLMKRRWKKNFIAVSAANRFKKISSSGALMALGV

[23] = biological target: Dual specificity protein kinase CLK1 (Homo sapiens, UniProt P49759); test: Inhibition of CLK1 (unknown origin) in presence of ATP
Sequence of Dual specificity protein kinase CLK1 (P49759 whole entry): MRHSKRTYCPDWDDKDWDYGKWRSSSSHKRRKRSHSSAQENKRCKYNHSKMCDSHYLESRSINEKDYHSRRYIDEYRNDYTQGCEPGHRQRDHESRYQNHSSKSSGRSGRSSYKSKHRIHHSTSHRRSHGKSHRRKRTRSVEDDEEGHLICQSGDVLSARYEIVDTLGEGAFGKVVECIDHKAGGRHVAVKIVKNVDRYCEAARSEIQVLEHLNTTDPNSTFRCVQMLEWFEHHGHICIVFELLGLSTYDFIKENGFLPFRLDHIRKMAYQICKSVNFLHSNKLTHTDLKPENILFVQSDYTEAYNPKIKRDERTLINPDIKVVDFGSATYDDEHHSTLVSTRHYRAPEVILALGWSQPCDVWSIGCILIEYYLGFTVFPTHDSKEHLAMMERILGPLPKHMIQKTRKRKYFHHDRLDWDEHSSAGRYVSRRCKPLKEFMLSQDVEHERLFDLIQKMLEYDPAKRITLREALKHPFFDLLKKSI

[24] = biological target: Calcium/calmodulin-dependent protein kinase type 1 (Homo sapiens, UniProt Q14012); test: Inhibition of CAMK1 (unknown origin) in presence of ATP
[25] = biological target: CYP2D6 (Homo sapiens, UniProt P10635); test: Inhibition of CYP2D6 (unknown origin) at 3 uM; type: ADME
Sequence of CYP2D6 (P10635 whole entry): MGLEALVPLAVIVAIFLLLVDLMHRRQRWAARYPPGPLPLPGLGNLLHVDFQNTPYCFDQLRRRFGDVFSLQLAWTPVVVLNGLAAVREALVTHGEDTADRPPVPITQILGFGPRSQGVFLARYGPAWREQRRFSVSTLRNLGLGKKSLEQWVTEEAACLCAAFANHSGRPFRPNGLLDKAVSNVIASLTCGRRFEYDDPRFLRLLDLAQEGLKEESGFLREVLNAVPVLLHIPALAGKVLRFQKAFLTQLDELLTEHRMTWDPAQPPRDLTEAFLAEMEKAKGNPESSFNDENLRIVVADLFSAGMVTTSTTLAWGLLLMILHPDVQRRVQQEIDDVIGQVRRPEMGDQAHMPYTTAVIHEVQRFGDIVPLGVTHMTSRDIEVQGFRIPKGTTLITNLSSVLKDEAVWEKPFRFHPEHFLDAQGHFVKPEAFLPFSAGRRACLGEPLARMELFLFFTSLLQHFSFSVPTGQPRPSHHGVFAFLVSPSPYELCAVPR

Sequence of hERG (KCNH2) (Q12809 whole entry): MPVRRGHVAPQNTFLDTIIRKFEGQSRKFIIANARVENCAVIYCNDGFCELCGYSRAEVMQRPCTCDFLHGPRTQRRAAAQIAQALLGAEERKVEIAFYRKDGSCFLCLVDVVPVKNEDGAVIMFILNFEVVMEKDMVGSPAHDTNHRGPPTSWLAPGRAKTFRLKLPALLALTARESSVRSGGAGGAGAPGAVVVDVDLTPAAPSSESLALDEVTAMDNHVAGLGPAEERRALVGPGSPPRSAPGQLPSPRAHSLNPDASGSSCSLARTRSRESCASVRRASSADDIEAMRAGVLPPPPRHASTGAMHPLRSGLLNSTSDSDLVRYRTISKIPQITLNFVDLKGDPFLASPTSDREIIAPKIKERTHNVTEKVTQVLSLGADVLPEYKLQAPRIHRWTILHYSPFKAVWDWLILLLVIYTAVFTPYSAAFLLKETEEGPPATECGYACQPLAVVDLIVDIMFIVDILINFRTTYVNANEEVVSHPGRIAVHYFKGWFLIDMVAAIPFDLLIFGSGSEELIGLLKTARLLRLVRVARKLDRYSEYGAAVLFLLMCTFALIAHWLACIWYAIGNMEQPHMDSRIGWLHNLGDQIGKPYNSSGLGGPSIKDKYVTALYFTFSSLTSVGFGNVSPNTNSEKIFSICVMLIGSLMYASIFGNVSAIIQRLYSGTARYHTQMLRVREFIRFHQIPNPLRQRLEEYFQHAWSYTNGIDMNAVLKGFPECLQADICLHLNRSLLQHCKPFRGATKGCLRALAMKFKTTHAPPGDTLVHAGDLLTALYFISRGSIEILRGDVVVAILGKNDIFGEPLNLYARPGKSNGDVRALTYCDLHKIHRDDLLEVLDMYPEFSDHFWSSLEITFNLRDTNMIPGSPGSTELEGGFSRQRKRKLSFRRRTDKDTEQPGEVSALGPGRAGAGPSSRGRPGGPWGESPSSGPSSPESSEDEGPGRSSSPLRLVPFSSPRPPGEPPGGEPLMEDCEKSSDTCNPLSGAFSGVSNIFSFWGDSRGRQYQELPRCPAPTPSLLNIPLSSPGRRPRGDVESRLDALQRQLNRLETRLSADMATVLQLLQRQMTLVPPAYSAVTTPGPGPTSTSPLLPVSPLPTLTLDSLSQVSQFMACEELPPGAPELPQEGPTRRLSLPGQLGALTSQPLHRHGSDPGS

Compound	half-life [1] [min]	IC50 [3] [µM]	Papp [4] [×10⁻⁶ cm/s]	solubility [5] [µM]	IC50 [6] [µM]	half-life [7] [min]	inhibition at 10 µM [2] [%]	also measured
CC[C@@H](CO)Nc1nc(Nc2cc(Cl)cc(Cl)c2)ncc1C(=O)NC1CCN(C)CC1	37	0.003	2	3.5 (≈ 1.64 µg/mL)	–	–	3.4	–
CN1CCC(NC(=O)c2cnc(NCc3cc(Cl)ccc3Cl)nc2NC2CCNCC2)CC1	38	0.19	< 0.1	200 (≈ 98.5 µg/mL)	8.5	60	> 50	Cmax [9]: 25 ng/mL; bioavailability [10]: 0%; Vd [11]: 0.4 L/kg; half-life [13]: 12 min; clearance [15]: 40 mL/min/kg
CN1CCC(NC(=O)c2cnc(NCc3cc(Cl)ccc3Cl)nc2NC2CCC(N(C)C)CC2)CC1 (stereo not given)	23	0.041	2	89 (≈ 47.6 µg/mL)	–	57	1.6	–
CN1CCC(NC(=O)c2cnc(Nc3cc(Cl)cc(Cl)c3)nc2NC2CCC(N(C)C)CC2)CC1 (stereo not given)	120	0.002	0.3	200 (≈ 104 µg/mL)	1.4	60	6.7	IC50 [20]: 12.2 µM; IC50 [21]: 0.12 µM; IC50 [22]: 8.27 µM; IC50 [23]: 3.45 µM; IC50 [14]: 7.61 µM; IC50 [24]: 19.7 µM
CN1CCC(NC(=O)c2cnc(Nc3cc(Cl)cc(Cl)c3)nc2NC2CCOCC2)CC1	35	0.009	< 0.1	40 (≈ 19.2 µg/mL)	–	–	–	–
CN1CCC(NC(=O)c2cnc(Nc3cc(Cl)cc(Cl)c3)nc2N[C@H]2CCCCNC2=O)CC1	41	0.006	0.2	2.3 (≈ 1.16 µg/mL)	–	–	4	–
CN1CCC(NC(=O)c2cnc(Nc3cc(Cl)cc(Cl)c3)nc2N[C@@H]2COC[C@H]2O)CC1	74	0.01	1.4	40 (≈ 19.3 µg/mL)	9.6	60	0.98	IC50 [20]: 13.4 µM; IC50 [21]: 2.48 µM; IC50 [18]: 4.5 µM; bioavailability [10]: 0%; IC50 [22]: 24.9 µM; Vd [11]: 2.7 L/kg; IC50 [12]: 3.68 µM; IC50 [23]: 11.2 µM; half-life [13]: 780 min; clearance [15]: 55 mL/min/kg
Cc1cc(-c2cnc(Nc3cc(Cl)cc(Cl)c3)nc2NC2CCNCC2)on1	21	0.092	0.2	5.2 (≈ 2.18 µg/mL)	–	3	1.3	inhibition at 3 µM [25]: 81%
O[C@@H]1COC[C@H]1Nc1nc(Nc2cc(Cl)cc(Cl)c2)ncc1-c1cccnc1	120	0.044	1	200 (≈ 83.7 µg/mL)	–	31	1.5	inhibition at 3 µM [25]: 88%
O[C@@H]1COC[C@H]1Nc1nc(Nc2cc(Cl)cc(Cl)c2)ncc1-c1ccc(F)cc1	48	0.15	< 0.01	200 (≈ 87.1 µg/mL)	–	60	2.7	inhibition at 3 µM [25]: 24%
O[C@@H]1COC[C@H]1Nc1nc(Nc2cc(Cl)cc(Cl)c2)ncc1Br	30	0.015	0.3	5.2 (≈ 2.18 µg/mL)	–	31	> 100	inhibition at 3 µM [25]: 1%

Further lines, with some results ahead:

half-life [1] [min]	IC50 [3] [µM]	Papp [4] [×10⁻⁶ cm/s]	solubility [5] [µM]	IC50 [6] [µM]	half-life [7] [min]	Compound	inhibition at 10 µM [2] [%]	also measured
–	–	1.5	81.6 (≈ 38.1 µg/mL)	46	16	COc1ccccc1CNc1ncc(C(=O)NCCCN2CCCC2=O)c(NC2CCCC2)n1	7	–
–	–	0.1	3.9 (≈ 1.97 µg/mL)	28	4	O=C(NCCCN1CCCC1=O)c1cnc(NCc2cc(Cl)ccc2Cl)nc1NC1CCCC1	23	–
–	–	–	1.3 (≈ 0.66 µg/mL)	29	< 5	O=C(NCCCN1CCOC1=O)c1cnc(NCc2cc(Cl)ccc2Cl)nc1NC1CCCC1	33	–
5	0.38	1.9	7.8 (≈ 3.33 µg/mL)	–	–	COc1ccccc1CNc1ncc(C(=O)NCCNC(C)=O)c(NC2CCCC2)n1	35	–
60	1.3	21	12 (≈ 5.25 µg/mL)	–	22	COc1ccccc1CNc1ncc(C(=O)NCCc2nnn[nH]2)c(NC2CCCC2)n1	79	–
40	0.5	–	200 (≈ 88.1 µg/mL)	24	–	COc1ccccc1CNc1ncc(C(=O)NCCCCN(C)C)c(NC2CCCC2)n1	28	–
34	0.52	1.2	80 (≈ 35.1 µg/mL)	8.8	56	COc1ccccc1CNc1ncc(C(=O)NC2CCN(C)CC2)c(NC2CCCC2)n1	27	AUC [8]: 302 ng·h/mL; Cmax [9]: 74 ng/mL; bioavailability [10]: 41%; Vd [11]: 18 L/kg; IC50 [12]: 15 µM; half-life [13]: 210 min; IC50 [14]: 21.1 µM; clearance [15]: 73 mL/min/kg
14	0.27	0.02	7.8 (≈ 3.72 µg/mL)	7.2	60	CN1CCC(NC(=O)c2cnc(NCc3cc(Cl)ccc3Cl)nc2NC2CCCC2)CC1	47	IC50 [16]: 18.6 µM; AUC [8]: 680 ng·h/mL; IC50 [17]: 12.5 µM; IC50 [18]: 2.39 µM; Cmax [9]: 35 ng/mL; bioavailability [10]: 32%; Vd [11]: 25 L/kg; IC50 [12]: 1.36 µM; half-life [13]: 480 min; IC50 [14]: 3.17 µM; IC50 [19]: 18.6 µM; clearance [15]: 40 mL/min/kg
11	0.16	0.9	7.8 (≈ 3.12 µg/mL)	46	–	COc1ccccc1CNc1ncc(C(=O)NCCCO)c(NC2CCCC2)n1	35	–
